# Experimental data as given in patent US9175045B2, “Peptidomimetic macrocycles” (Aileron Therapeutics, Inc., priority 2008, dated 2015).
# Numbered stars: 1 amine (or outer) side, 2 acyl side, 3 side chain; on linkers, the order of the positions; unused ones are H or OH. Bridge positions count the residues as written; N and C are the ends. Square brackets hold non-standard residues; d marks the D form. Peptide text beside a SMILES is read from it. * marks the point of attachment. ξ: configuration not given here. ξαMeNle(6-ylidene) = CC(CCCC=[*:3])(N[*:1])C(=O)[*:2]; S5 = C=CCCC[C@](C)(N)C(=O)O; Nle = CCCC[C@H](N)C(=O)O; Aib = CC(C)(N)C(=O)O; Propionyl = CCC(=O)*
# Assays:
# Jurkat cell line = type: cell-based; conditions: for EC50: 24 h
# Procedure: Jurkat cell line (Clone E6-1, ATCC catalog #TIB-152) is grown in specific serum-supplemented media (RPMI-1640, Invitrogen catalog #22400) as recommended by ATCC. A day prior to the initiation of the study, cells are split at optimal cell density (2×10^5-5×10^5 cells/ml) to assure actively dividing cells. The next day, cells are washed twice in serum-free Opti-MEM media (Invitrogen, Catalog #51985) and cells are then plated at optimal cell density (10,000 cells/well) in 50 μl Opti-MEM media or Opti-MEM supplemented with 2% or 10% human serum (Bioreclamation, catalog #HMSRM) in 96-well white tissue culture plate (Nunc, catalog #136102).
# For serum free experiment, crosslinked polypeptides are diluted from 2 mM stocks (100% DMSO) in sterile water to prepare 400 μM working solutions. The crosslinked polypeptides and controls are diluted 10-fold first and then serially two-fold diluted in Opti-MEM in dosing plates to provide concentrations of between 1.2 and 40 μM. 50 μl of each dilution is then added to the appropriate wells of the test plate to achieve final concentrations of the polypeptides equal to between 0.6 to 20 μM. For studies using Opti-MEM supplemented with human serum (Bioreclamation, catalog #HMSRM), crosslinked polypeptides are diluted from 10 mM stocks (100% DMSO) in sterile water to prepare 2 mM working solutions. The crosslinked polypeptides and controls are diluted 10-fold first and then serially two-fold diluted in Opti-MEM in the presence of 2% or 10% of human serum to provide concentrations of the polypeptides equal to between 6.25 to 200 μM in dosing plates. 50 μl of each dilution is then added to the appropriate wells of the test plate to achieve final concentrations of the polypeptides equal to between 3.125 to 100 μM. Controls included wells without polypeptides containing the same concentration of DMSO as the wells containing the macrocycles, wells containing 0.1% Triton X-100 and wells containing no cells. Plates are incubated for 24 hours at 37° C. in humidified 5% CO2 atmosphere.
# At the end of the incubation period, CellTiter-Glo assay is performed according to manufacturer's instructions (Promega, catalog #G7573) and luminescence is measured using Synergy HT Plate reader (BioTek). Luminescence correlates with viability. A reduction in viability reflects the ability of the test compounds to induce programmed cell death via BAX and BAK.
# human serum proteins = assay: Apparent affinity to human serum proteins (Kd*) by EC50 shift analysis; type: in vitro ADME; conditions: nonlinear regression of EC50 shift with serum, n = 1, P = 700 μM for 100% serum
# Text: The measurement of apparent Kd values for serum protein by EC50 shift analysis provides a simple and rapid means of quantifying the propensity of experimental compounds to bind HSA and other serum proteins. A linear relationship exists between the apparent EC50 in the presence of serum protein (EC′50) and the amount of serum protein added to an in vitro assay. This relationship is defined by the binding affinity of the compound for serum proteins, expressed as Kd*. This term is an experimentally determined, apparent dissociation constant that may result from the cumulative effects of multiple, experimentally indistinguishable, binding events. The form of this relationship is presented here in Eq. 0.3, and its derivation can be found in Copeland et al, Biorg. Med. Chem. Lett. 2004, 14:2309-2312. [formula] A significant proportion of serum protein binding can be ascribed to drug interactions with HSA, due to the very high concentration of this protein in serum (35-50 g/L or 530-758 μM). To calculate the Kd value for these compounds we have assumed that the shift in EC50 upon protein addition can be ascribed fully to the HSA present in the added serum, where P is 700 μM for 100% serum, P is 70 μM for 10% serum, etc. We further made the simplifying assumption that all of the compounds bind HSA with a 1:1 stoichiometry, so that the term n in Eq. (0.3) is fixed at unity. With these parameters in place we calculated the Kd* value for each stapled peptide from the changes in EC50 values with increasing serum (and serum protein) concentrations by nonlinear regression analysis of Eq. 0.3 using Mathematica 4.1 (Wolfram Research, Inc., www.wolfram.com). EC′50 values in whole blood are estimated by setting P in Eq. 0.3 to 700 μM [HSA].
# [1] = biological target: T1, human serum proteins (binding ascribed fully to human serum albumin, HSA) (human, UniProt P02768 25-609); assay: cell-based or functional assay
# [2] = biological target: T1, human serum proteins (binding ascribed …); assay: apparent Kd* by EC50 shift analysis: Jurkat viability EC50 at 0, 2 and 10% human serum, fit assuming 1:1 binding to HSA
# T1 sequence (P02768 25-609 limits assumed): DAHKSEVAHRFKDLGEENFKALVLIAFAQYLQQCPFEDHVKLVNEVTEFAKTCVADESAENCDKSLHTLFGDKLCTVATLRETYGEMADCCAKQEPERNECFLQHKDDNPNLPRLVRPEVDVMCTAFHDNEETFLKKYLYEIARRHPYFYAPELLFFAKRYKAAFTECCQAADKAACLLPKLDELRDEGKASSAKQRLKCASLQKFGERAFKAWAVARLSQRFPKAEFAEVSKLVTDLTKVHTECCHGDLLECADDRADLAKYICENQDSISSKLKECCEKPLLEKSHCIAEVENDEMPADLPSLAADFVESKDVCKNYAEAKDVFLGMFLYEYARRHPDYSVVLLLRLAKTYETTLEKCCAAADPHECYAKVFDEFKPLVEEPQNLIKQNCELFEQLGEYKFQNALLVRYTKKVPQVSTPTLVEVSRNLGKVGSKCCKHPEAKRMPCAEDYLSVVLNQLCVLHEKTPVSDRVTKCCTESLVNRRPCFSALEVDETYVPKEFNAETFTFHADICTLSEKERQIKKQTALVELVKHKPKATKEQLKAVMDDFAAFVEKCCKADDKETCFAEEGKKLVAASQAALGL
Molecule,EC50 (Jurkat cell line) [µM],Kd (human serum proteins) [µM],efficacy in serum-free media and in the presence of serum (Jurkat cell line; statement in words),"2% serum EC50 (Jurkat cell viability, CellTiter-Glo) [1] [µM]","10% serum EC50 (Jurkat cell viability, CellTiter-Glo) [1] [µM]",Kd [2] [µM]
"CC[C@H](C)[C@H](NC(=O)[C@H](CCCNC(=N)N)NC(=O)[C@H](CCCNC(=N)N)NC(=O)[C@H](CCCNC(=N)N)NC(=O)[C@H](CC(C)C)NC(=O)[C@H](CCCNC(=N)N)NC(=O)[C@H](CCC(=O)O)NC(C)=O)C(=O)NC1(C)CCCC=CCCCC(C)(C(=O)N[C@@H](Cc2c[nH]cn2)C(=O)N[C@@H](Cc2c[nH]cn2)C(=O)N[C@@H](CO)C(=O)N[C@H](C(N)=O)[C@@H](C)O)NC(=O)[C@H](CCCNC(=N)N)NC(=O)[C@H](C)NC(=O)[C@H](CC(C)C)NC1=O (stereo partly drawn) [Compound 18, Ac-ERLRRRI$LAR$HHST-NH2] (Ac-ERLRRRI[ξαMeNle(6-ylidene)]LAR[ξαMeNle(6-ylidene)]HHST-NH2; staple 8-12)",> 20,< 0.1,–,–,–,–
"CCCC[C@H](NC(=O)C1(C)CCCC=CCCCC(C)(NC(=O)[C@H](C)NC(=O)[C@H](CC(C)C)NC(=O)[C@H](Cc2c[nH]cn2)NC(=O)[C@H](CCCNC(=N)N)NC(=O)[C@H](C)NC(=O)[C@@H](NC(=O)[C@H](CC(N)=O)NC(=O)[C@H](CCCNC(=N)N)NC(=O)CC)[C@@H](C)CC)C(=O)N[C@@H](C(C)C)C(=O)NCC(=O)N[C@@H](CC(=O)O)C(=O)N1)C(=O)NC(C)(C)C(=O)N[C@@H](CCCNC(=N)N)C(=O)N[C@@H](CO)C(=O)N[C@H](C(N)=O)[C@@H](C)CC (stereo partly drawn) [Compound 8, Pr-RNIARHLA$VGD$NleAibRSI-NH2] (Propionyl-RNIARHLA[ξαMeNle(6-ylidene)]VGD[ξαMeNle(6-ylidene)][Nle][Aib]RSI-NH2; staple 9-13)",2.4,2.3,–,–,–,–
"CC[C@H](C)[C@H](NC(=O)[C@H](Cc1c[nH]c2ccccc12)NC(=O)[C@H](CCCNC(=N)N)NC(C)=O)C(=O)N[C@@H](C)C(=O)N[C@@H](CCC(N)=O)C(=O)N[C@@H](C)C(=O)N[C@@H](CC(C)C)C(=O)N[C@@H](CCCNC(=N)N)C(=O)NC1(C)CCCC=CCCCC(C)(C(=O)N[C@@H](Cc2ccccc2)C(=O)N[C@@H](CC(N)=O)C(=O)N[C@@H](C)C(=O)N[C@@H](Cc2ccccc2)C(=O)N[C@@H](Cc2ccc(O)cc2)C(=O)N[C@@H](C)C(=O)N[C@@H](CCCNC(=N)N)C(=O)N[C@@H](CCCNC(=N)N)C(N)=O)NC(=O)[C@H](CC(=O)O)NC(=O)CNC(=O)[C@H]([C@@H](C)CC)NC1=O (stereo partly drawn) [Compound 14, Ac-RWIAQALR$1GD$FNAFYARR-NH2]",0.4,2.3,–,–,–,–
"CCCC[C@H](NC(=O)C1(C)CCCC=CCCCC(C)(NC(=O)[C@H](C)NC(=O)[C@H](CC(C)C)NC(=O)[C@H](Cc2c[nH]cn2)NC(=O)[C@H](CCCNC(=N)N)NC(=O)[C@H](C)NC(=O)[C@@H](NC(=O)[C@H](CC(N)=O)NC(=O)[C@H](CCCNC(=N)N)NC(=O)CC)[C@@H](C)CC)C(=O)N[C@@H](C(C)C)C(=O)NC(C)(C)C(=O)N[C@@H](CC(=O)O)C(=O)N1)C(=O)N[C@@H](CC(=O)O)C(=O)N[C@@H](CCCNC(=N)N)C(=O)N[C@@H](CO)C(=O)N[C@H](C(N)=O)[C@@H](C)CC (stereo partly drawn) [Compound 5, Pr-RNIARHLA$VAibD$NleDRSI-NH2] (Propionyl-RNIARHLA[ξαMeNle(6-ylidene)]V[Aib]D[ξαMeNle(6-ylidene)][Nle]DRSI-NH2; staple 9-13)",1.6,0.2,–,–,–,–
"CCCC[C@H](NC(=O)C1(C)CCCC=CCCCC(C)(NC(=O)C(C)(C)NC(=O)[C@H](CC(C)C)NC(=O)[C@H](Cc2c[nH]cn2)NC(=O)[C@H](CCCNC(=N)N)NC(=O)[C@H](C)NC(=O)[C@@H](NC(=O)[C@H](CC(N)=O)NC(=O)[C@H](CCCNC(=N)N)NC(=O)CC)[C@@H](C)CC)C(=O)N[C@@H](C(C)C)C(=O)NC(C)(C)C(=O)N[C@@H](CC(=O)O)C(=O)N1)C(=O)N[C@@H](CC(=O)O)C(=O)N[C@@H](CCCNC(=N)N)C(=O)N[C@@H](CO)C(=O)N[C@H](C(N)=O)[C@@H](C)CC (stereo partly drawn) [Compound 6, Pr-RNIARHLAib$VAibD$NleDRSI-NH2] (Propionyl-RNIARHL[Aib][ξαMeNle(6-ylidene)]V[Aib]D[ξαMeNle(6-ylidene)][Nle]DRSI-NH2; staple 9-13)",1,0.4,–,–,–,–
"CC[C@H](C)[C@H](NC(=O)[C@H](CCCNC(=N)N)NC(=O)[C@H](CCCNC(=N)N)NC(=O)[C@H](CCCNC(=N)N)NC(=O)[C@H](CC(C)C)NC(=O)[C@H](CCCNC(=N)N)NC(=O)[C@H](CCC(=O)O)NC(C)=O)C(=O)NC1(C)CCCC=CCCCC(C)(C(=O)N[C@@H](Cc2c[nH]cn2)C(=O)N[C@@H](Cc2c[nH]cn2)C(=O)N[C@@H](CO)C(=O)N[C@H](C(N)=O)[C@@H](C)O)NC(=O)[C@H](CCCNC(=N)N)NC(=O)[C@H](CS)NC(=O)[C@H](CC(C)C)NC1=O (stereo partly drawn) [Compound 17, Ac-ERLRRRI$LCR$HHST-NH2] (Ac-ERLRRRI[ξαMeNle(6-ylidene)]LCR[ξαMeNle(6-ylidene)]HHST-NH2; staple 8-12)",12,< 0.1,"high efficacy in serum-free media, which is substantially reduced in the presence of serum",–,–,–
"CCC(=O)N[C@@H](CCCNC(=N)N)C(=O)N[C@@H](CC(N)=O)C(=O)N[C@H](C(=O)N[C@@H](C)C(=O)N[C@@H](CCCNC(=N)N)C(=O)N[C@@H](Cc1c[nH]cn1)C(=O)N[C@@H](CC(C)C)C(=O)N[C@@H](C)C(=O)NC1(C)CCCC=CCCCC(C)(C(=O)N[C@@H](Cc2ccccc2)C(=O)N[C@@H](C)C(=O)N[C@@H](CCCNC(=N)N)C(=O)N[C@@H](CO)C(=O)N[C@H](C(N)=O)[C@@H](C)CC)NC(=O)[C@H](CC(=O)O)NC(=O)C(C)(C)NC(=O)[C@H](C(C)C)NC1=O)[C@@H](C)CC (stereo partly drawn) [Compound 7, Pr-RNIARHLA$VAibD$FARSI-NH2] (Propionyl-RNIARHLA[ξαMeNle(6-ylidene)]V[Aib]D[ξαMeNle(6-ylidene)]FARSI-NH2; staple 9-13)",2.2,1.1,–,–,–,–
Ac-DIIRNIARHLA[S5]VGD[S5][Nle]DRSI-NH2 (staple 12-16) [Compound 1 (crosslinked polypeptide derived from human BID BH3)],–,–,–,73.9,> 100,< 0.1
Propionyl-RNIARHLA[S5]V[Aib]D[S5][Nle]DRSI-NH2 (staple 9-13) [Compound 5 (crosslinked polypeptide derived from human BID BH3)],–,–,–,16.7,63,0.2
Propionyl-RNIARHL[Aib][S5]V[Aib]D[S5][Nle]DRSI-NH2 (staple 9-13) [Compound 6 (crosslinked polypeptide derived from human BID BH3)],–,–,–,10.1,49.7,0.4
Propionyl-RNIARHLA[S5]V[Aib]D[S5]FARSI-NH2 (staple 9-13) [Compound 7 (crosslinked polypeptide derived from human BID BH3)],–,–,–,12.4,48.2,1.1
Propionyl-RNIARHLA[S5]VGD[S5][Nle][Aib]RSI-NH2 (staple 9-13) [Compound 8 (crosslinked polypeptide derived from human BID BH3)],–,–,–,10.5,37.7,2.3
